As a reminder, the IC50 is the concentration at which inhibition is half-maximal. A lower IC50 goes with greater potency in that assay.

Experimental findings from ChEMBL document CHEMBL1157605, “Hybrid molecules from xanomeline and tacrine: enhanced tacrine actions on cholinesterases and muscarinic M1 receptors” (J Med Chem, 2010) are described below.

Activity calls are given as the source filed them. The rule behind the calls is not given here.

One assay has as its target Acetylcholinesterase (Electrophorus electricus, UniProt O42275).
In the next assay the target is Cholinesterase (Equus caballus, UniProt P81908).
Sequence of Cholinesterase (P81908 whole entry): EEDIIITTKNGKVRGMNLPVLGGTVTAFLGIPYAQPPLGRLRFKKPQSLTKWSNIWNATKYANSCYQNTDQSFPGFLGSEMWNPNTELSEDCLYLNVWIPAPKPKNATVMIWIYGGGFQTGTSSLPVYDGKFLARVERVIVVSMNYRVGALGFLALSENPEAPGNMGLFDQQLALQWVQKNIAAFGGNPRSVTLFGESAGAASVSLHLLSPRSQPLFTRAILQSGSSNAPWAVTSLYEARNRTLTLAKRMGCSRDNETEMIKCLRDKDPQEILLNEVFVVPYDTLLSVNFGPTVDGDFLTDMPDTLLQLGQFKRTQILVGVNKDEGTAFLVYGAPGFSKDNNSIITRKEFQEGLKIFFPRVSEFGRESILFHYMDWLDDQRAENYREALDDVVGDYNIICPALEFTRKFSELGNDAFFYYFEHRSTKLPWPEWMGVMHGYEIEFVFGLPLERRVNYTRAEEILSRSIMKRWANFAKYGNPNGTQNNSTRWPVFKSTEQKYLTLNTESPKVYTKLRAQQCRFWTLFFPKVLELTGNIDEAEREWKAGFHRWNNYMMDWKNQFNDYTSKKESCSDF
Assay [1] deals with T1, Muscarinic acetylcholine receptor M1 (Homo sapiens) (UniProt P11229).
T1 sequence (whole entry): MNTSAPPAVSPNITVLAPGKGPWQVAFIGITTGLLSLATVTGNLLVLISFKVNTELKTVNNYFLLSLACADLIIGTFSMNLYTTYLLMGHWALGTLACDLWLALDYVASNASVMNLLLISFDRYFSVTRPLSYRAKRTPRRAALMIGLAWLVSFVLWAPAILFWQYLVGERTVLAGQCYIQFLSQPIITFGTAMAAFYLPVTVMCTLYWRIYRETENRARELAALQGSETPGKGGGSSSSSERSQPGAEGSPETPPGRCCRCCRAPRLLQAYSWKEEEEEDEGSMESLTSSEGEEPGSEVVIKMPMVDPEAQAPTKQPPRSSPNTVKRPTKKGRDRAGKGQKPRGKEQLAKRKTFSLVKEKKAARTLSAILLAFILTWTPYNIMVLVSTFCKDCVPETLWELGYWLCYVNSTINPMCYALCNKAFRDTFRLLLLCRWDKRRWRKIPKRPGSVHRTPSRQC
As to conditions: CHO.
Description: Displacement of [3H]NMS from human muscarinic M1 receptor expressed in CHO cells in binary complex by EATCM analysis

The target of assay [2] is T1, Muscarinic acetylcholine receptor M1 (Homo sapiens). Conditions: CHO. This is another data set of the same source.
Description: Displacement of [3H]NMS from human muscarinic M1 receptor expressed in CHO cells in ternary complex by EATCM analysis
In assay [3] the test system is Rattus norvegicus. The assay is described as follows: Antiamnesic activity against scopolamine-induced memory loss in Wistar rat assessed as increase in total exploration time at 2 umol/100 g body weight, ip by eight-arm radial maze cognition test. The class given is functional, organism-based.
Assay [4] concerns Rattus norvegicus. As to the kind of experiment: Antiamnesic activity in Wistar rat assessed as increase in total exploration time at 2 umol/100 g body weight, ip by eight-arm radial maze cognition test. The class given is functional, organism-based.

Sequence of Acetylcholinesterase (O42275 whole entry): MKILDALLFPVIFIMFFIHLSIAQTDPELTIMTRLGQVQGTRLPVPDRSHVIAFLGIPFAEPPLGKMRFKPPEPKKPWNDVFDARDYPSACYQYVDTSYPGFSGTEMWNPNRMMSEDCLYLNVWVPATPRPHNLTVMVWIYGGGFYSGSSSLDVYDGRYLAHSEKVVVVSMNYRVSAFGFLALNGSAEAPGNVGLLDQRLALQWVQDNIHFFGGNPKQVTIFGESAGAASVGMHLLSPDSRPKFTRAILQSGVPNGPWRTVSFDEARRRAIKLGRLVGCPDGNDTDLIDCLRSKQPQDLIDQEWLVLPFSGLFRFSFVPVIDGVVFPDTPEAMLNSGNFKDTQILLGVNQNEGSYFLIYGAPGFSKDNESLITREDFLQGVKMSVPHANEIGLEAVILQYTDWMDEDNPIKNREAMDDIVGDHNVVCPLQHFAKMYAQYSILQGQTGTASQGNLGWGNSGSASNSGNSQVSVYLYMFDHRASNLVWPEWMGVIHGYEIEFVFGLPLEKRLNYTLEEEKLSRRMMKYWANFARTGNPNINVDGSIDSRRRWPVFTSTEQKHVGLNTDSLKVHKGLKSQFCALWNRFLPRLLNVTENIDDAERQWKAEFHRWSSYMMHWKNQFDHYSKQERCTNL
Description for Acetylcholinesterase: Inhibition of electric eel AChE by Ellman's method

As to `CN1CCC=C(c2nsnc2OCCCOCCCCC(=O)NCCCCNc2c3c(nc4ccccc24)CCCC3)C1`, the figures for the IC50 at Acetylcholinesterase and against Cholinesterase were 8.71 nM and 5.89 nM, respectively.

On to `CN1CCC=C(c2nsnc2OCCCCNCCCCNc2c3c(nc4ccccc24)CCCC3)C1`, for which the results for the half-maximal inhibitory concentration (IC50) on Acetylcholinesterase and on Cholinesterase were 43.7 nM and 16.2 nM, respectively. The logKd in assay [1] came out at 8.13; in assay [2], 7.49.

For `CN1CCC=C(c2nsnc2OCCCOCCC(=O)NCCCCNc2c3c(nc4ccccc24)CCCC3)C1`, the IC50 against Acetylcholinesterase was 10.7 nM; at Cholinesterase it was 9.12 nM.

With `CN1CCC=C(c2nsnc2OCCCOCCCC(=O)NCCCCCCCCNc2c3c(nc4ccccc24)CCCC3)C1`, the IC50 against Acetylcholinesterase was 6.46 nM; on Cholinesterase it was 5.01 nM. The logKd is 7.38 in assay [1] and 7.06 in assay [2].

In the case of `CN1CCC=C(c2nsnc2OCCCCNCCCCCNc2c3c(nc4ccccc24)CCCC3)C1`, the figures for the IC50 against Acetylcholinesterase and against Cholinesterase were 21.9 nM and 12.3 nM, respectively.

Take `CN1CCC=C(c2nsnc2OCCCCNCCCNc2c3c(nc4ccccc24)CCCC3)C1`: the IC50 on Acetylcholinesterase is 63.1 nM; against Cholinesterase, 28.8 nM.

Take `CN1CCC=C(c2nsnc2OCCCOCCCCC(=O)NCCCNc2c3c(nc4ccccc24)CCCC3)C1`: the IC50 on Acetylcholinesterase was 10.2 nM; against Cholinesterase it was 8.91 nM.

Regarding `CN1CCC=C(c2nsnc2OCCCCNCCCCCCCCNc2c3c(nc4ccccc24)CCCC3)C1`, the IC50 on Acetylcholinesterase is 26.3 nM; at Cholinesterase it was 13.5 nM.

Regarding `CCCCCCOc1nsnc1C1=CCCN(C)C1`, the logKd in assay [1] was 7.4; in assay [2] it was 4.94.

With `CN1CCC=C(c2nsnc2OCCCOCC(=O)NCCCCNc2c3c(nc4ccccc24)CCCC3)C1`, the IC50 on Acetylcholinesterase is 12 nM; against Cholinesterase, 10.7 nM.

As to `CN1CCC=C(c2nsnc2OCCCOCC(=O)NCCCNc2c3c(nc4ccccc24)CCCC3)C1`, the IC50 is 14.8 nM on Acetylcholinesterase and 9.77 nM on Cholinesterase. The figures for the logKd in assay [1] and in assay [2] were 8.1 and 7.87, respectively.

`CN1CCC=C(c2nsnc2OCCCOCCC(=O)NCCCNc2c3c(nc4ccccc24)CCCC3)C1`: the IC50 against Acetylcholinesterase was 13.5 nM; at Cholinesterase it was 10.7 nM. Further, the values for the logKd in assay [1] and in assay [2] were 8.09 and 8.03, respectively.

In the case of `CN1CCC=C(c2nsnc2OCCCOCC(=O)NCCCCCCCCNc2c3c(nc4ccccc24)CCCC3)C1`, the IC50 on Acetylcholinesterase was 6.61 nM; against Cholinesterase, 5.13 nM. Also, the outcome with Rattus norvegicus [3] and with Rattus norvegicus [4] was Active. The results for the logKd in assay [1] and in assay [2] were 6.88 and 6.35, respectively.

Take `CN1CCC=C(c2nsnc2OCCCOCCCC(=O)NCCCCNc2c3c(nc4ccccc24)CCCC3)C1`: the IC50 against Cholinesterase is 6.76 nM.

With `CN1CCC=C(c2nsnc2OCCCOCCCCC(=O)NCCCCCCCCNc2c3c(nc4ccccc24)CCCC3)C1`, the IC50 against Acetylcholinesterase was 6.17 nM; at Cholinesterase it was 5.89 nM.

Consider `CN1CCC=C(c2nsnc2OCCCOCCC(=O)NCCCCCCCCNc2c3c(nc4ccccc24)CCCC3)C1`, for which the IC50 was 22.9 nM against Acetylcholinesterase and 13.2 nM against Cholinesterase. For the same compound, the logKd in assay [1] came to 7.57; in assay [2] it was 6.7.

In the case of `CN1CCC=C(c2nsnc2OCCCOCCCC(=O)NCCCNc2c3c(nc4ccccc24)CCCC3)C1`, the IC50 was 10.7 nM on Acetylcholinesterase and 10 nM on Cholinesterase.
